Test results published in PubChem BioAssay AID1259407 (Chemical Carcinogenesis Research Information System (CCRIS), 2018).
Calls of active or inactive are those of the source. How the calls were made is not given here.

System: CCRIS mutagenicity, Ames/micronucleus/aberration tests
Experiment: CCRIS mutagenicity studies
[1] = Test System: AMES SALMONELLA TYPHIMURIUM, Strain/Indicator: TA97, Metabolic Activation: HAMSTER, LIVER, S-9, AROCLOR 1254 (10 OR 30%), Method: PREINCUBATION
[2] = Test System: AMES SALMONELLA TYPHIMURIUM, Strain/Indicator: TA97, Metabolic Activation: NONE, Method: PREINCUBATION
[3] = Test System: AMES SALMONELLA TYPHIMURIUM, Strain/Indicator: TA97, Metabolic Activation: RAT, LIVER, S-9, AROCLOR 1254 (10 OR 30%), Method: PREINCUBATION
[4] = Test System: AMES SALMONELLA TYPHIMURIUM, Strain/Indicator: TA98, Metabolic Activation: HAMSTER, LIVER, S-9, AROCLOR 1254 (30%), Method: PREINCUBATION
[5] = Test System: AMES SALMONELLA TYPHIMURIUM, Strain/Indicator: TA98, Metabolic Activation: NONE, Method: PREINCUBATION
[6] = Test System: AMES SALMONELLA TYPHIMURIUM, Strain/Indicator: TA98, Metabolic Activation: RAT, LIVER, S-9, AROCLOR 1254 (30%), Method: PREINCUBATION
[7] = Test System: AMES SALMONELLA TYPHIMURIUM, Strain/Indicator: TA100, Metabolic Activation: HAMSTER, LIVER, S-9, AROCLOR 1254 (10%), Method: PREINCUBATION
[8] = Test System: AMES SALMONELLA TYPHIMURIUM, Strain/Indicator: TA100, Metabolic Activation: HAMSTER, LIVER, S-9, AROCLOR 1254 (30%), Method: PREINCUBATION
[9] = Test System: AMES SALMONELLA TYPHIMURIUM, Strain/Indicator: TA100, Metabolic Activation: NONE, Method: PREINCUBATION
[10] = Test System: AMES SALMONELLA TYPHIMURIUM, Strain/Indicator: TA100, Metabolic Activation: RAT, LIVER, S-9, AROCLOR 1254 (30%), Method: PREINCUBATION
[11] = Test System: AMES SALMONELLA TYPHIMURIUM, Strain/Indicator: TA1535, Metabolic Activation: HAMSTER, LIVER, S-9, AROCLOR 1254 (10%), Method: PREINCUBATION
[12] = Test System: AMES SALMONELLA TYPHIMURIUM, Strain/Indicator: TA1535, Metabolic Activation: HAMSTER, LIVER, S-9, AROCLOR 1254 (30%), Method: PREINCUBATION
[13] = Test System: AMES SALMONELLA TYPHIMURIUM, Strain/Indicator: TA1535, Metabolic Activation: NONE, Method: PREINCUBATION
[14] = Test System: AMES SALMONELLA TYPHIMURIUM, Strain/Indicator: TA1535, Metabolic Activation: RAT, LIVER, S-9, AROCLOR 1254 (30%), Method: PREINCUBATION
[15] = Test System: AMES SALMONELLA TYPHIMURIUM, Strain/Indicator: TA1537, Metabolic Activation: NONE, Method: PREINCUBATION

Structure (SMILES)	mutagenic call [1]	mutagenic call [2]	mutagenic call [3]	mutagenic call [4]	mutagenic call [5]	mutagenic call [6]	mutagenic call [7]	mutagenic call [8]	mutagenic call [9]	mutagenic call [10]	mutagenic call [11]	mutagenic call [12]	mutagenic call [13]	mutagenic call [14]	mutagenic call [15]	other results
C[C@](N)(Cc1ccc(O)c(O)c1)C(=O)O	inactive; negative	inactive; negative	inactive; negative	inactive; negative	inactive; negative	inactive; negative	inactive; negative	inactive; negative	inactive; negative	inactive; negative	inactive; negative	inactive; negative	inactive; negative	inactive; negative		mutagenic call (End Point: IN VITRO CHROMOSOMAL ABERRATIONS, Test System: CHO CELLS, Metabolic Activation: NONE): inactive; negative; mutagenic call (End Point: IN VITRO CHROMOSOMAL ABERRATIONS, Test System: CHO CELLS, Metabolic Activation: RAT, LIVER, S-9, AROCLOR 1254): inactive; negative; testing limited by solubility of the chemical; mutagenic call (Test System: AMES SALMONELLA TYPHIMURIUM, Strain/Indicator: TA97, Metabolic Activation: HAMSTER, LIVER, S-9, AROCLOR 1254, Method: PREINCUBATION): inactive; negative; mutagenic call (Test System: AMES SALMONELLA TYPHIMURIUM, Strain/Indicator: TA97, Metabolic Activation: RAT, LIVER, S-9, AROCLOR 1254, Method: PREINCUBATION): inactive; negative; mutagenic call (Test System: AMES SALMONELLA TYPHIMURIUM, Strain/Indicator: TA98, Metabolic Activation: HAMSTER, LIVER, S-9, AROCLOR 1254 (10%), Method: PREINCUBATION): inactive; negative; mutagenic call (Test System: AMES SALMONELLA TYPHIMURIUM, Strain/Indicator: TA98, Metabolic Activation: HAMSTER, LIVER, S-9, AROCLOR 1254, Method: PREINCUBATION): inactive; negative; mutagenic call (Test System: AMES SALMONELLA TYPHIMURIUM, Strain/Indicator: TA98, Metabolic Activation: RAT, LIVER, S-9, AROCLOR 1254 (10%), Method: PREINCUBATION): inactive; negative; mutagenic call (Test System: AMES SALMONELLA TYPHIMURIUM, Strain/Indicator: TA98, Metabolic Activation: RAT, LIVER, S-9, AROCLOR 1254, Method: PREINCUBATION): inactive; negative; mutagenic call (Test System: AMES SALMONELLA TYPHIMURIUM, Strain/Indicator: TA100, Metabolic Activation: HAMSTER, LIVER, S-9, AROCLOR 1254, Method: PREINCUBATION): inactive; negative; mutagenic call (Test System: AMES SALMONELLA TYPHIMURIUM, Strain/Indicator: TA100, Metabolic Activation: RAT, LIVER, S-9, AROCLOR 1254 (10%), Method: PREINCUBATION): inactive; negative; mutagenic call (Test System: AMES SALMONELLA TYPHIMURIUM, Strain/Indicator: TA100, Metabolic Activation: RAT, LIVER, S-9, AROCLOR 1254, Method: PREINCUBATION): inactive; negative; mutagenic call (Test System: AMES SALMONELLA TYPHIMURIUM, Strain/Indicator: TA1535, Metabolic Activation: HAMSTER, LIVER, S-9, AROCLOR 1254, Method: PREINCUBATION): inactive; negative; mutagenic call (Test System: AMES SALMONELLA TYPHIMURIUM, Strain/Indicator: TA1535, Metabolic Activation: RAT, LIVER, S-9, AROCLOR 1254 (10%), Method: PREINCUBATION): inactive; negative; mutagenic call (Test System: AMES SALMONELLA TYPHIMURIUM, Strain/Indicator: TA1535, Metabolic Activation: RAT, LIVER, S-9, AROCLOR 1254, Method: PREINCUBATION): inactive; negative
COc1ccc(CO)cc1																mutagenic call (Test System: AMES SALMONELLA TYPHIMURIUM, Strain/Indicator: TA100, Metabolic Activation: NONE, Method: STANDARD PLATE): inactive; negative
CCCCOc1ccc(C=Nc2ccc(CC)cc2)cc1		inactive; negative		inactive; negative	inactive; negative	inactive; negative	inactive; negative		inactive; negative	inactive; negative	inactive; negative	inactive; negative	inactive; negative	inactive; negative	inactive; negative	mutagenic call (Test System: AMES SALMONELLA TYPHIMURIUM, Strain/Indicator: TA97, Metabolic Activation: HAMSTER, LIVER, S-9, AROCLOR 1254 (30%), Method: PREINCUBATION): inactive; negative; mutagenic call (Test System: AMES SALMONELLA TYPHIMURIUM, Strain/Indicator: TA97, Metabolic Activation: RAT, LIVER, S-9, AROCLOR 1254 (30%), Method: PREINCUBATION): inactive; negative; mutagenic call (Test System: AMES SALMONELLA TYPHIMURIUM, Strain/Indicator: TA1537, Metabolic Activation: HAMSTER, LIVER, S-9, AROCLOR 1254 (30%), Method: PREINCUBATION): inactive; negative; mutagenic call (Test System: AMES SALMONELLA TYPHIMURIUM, Strain/Indicator: TA1537, Metabolic Activation: RAT, LIVER, S-9, AROCLOR 1254 (30%), Method: PREINCUBATION): inactive; negative
Cc1ccc2nc3n(C)c4ccccc4c(C)c-3c2c1																mutagenic call (Test System: AMES SALMONELLA TYPHIMURIUM, Strain/Indicator: TA97, Metabolic Activation: RAT, LIVER, S-9, AROCLOR 1254, Method: STANDARD PLATE): active; positive; mutagenic call (Test System: AMES SALMONELLA TYPHIMURIUM, Strain/Indicator: TA98, Metabolic Activation: RAT, LIVER, S-9, AROCLOR 1254, Method: STANDARD PLATE): active; positive
CSC(C)(C)C(=O)N[C@@H](CS)C(=O)O					inactive; negative				inactive; negative				inactive; negative		inactive; negative	mutagenic call (Test System: AMES SALMONELLA TYPHIMURIUM, Strain/Indicator: TA1538, Metabolic Activation: NONE, Method: PREINCUBATION): inactive; negative; mutagenic call (Test System: E. COLI, Strain/Indicator: WP2, Metabolic Activation: NONE, Method: PREINCUBATION): inactive; negative; mutagenic call (Test System: E. COLI, Strain/Indicator: WP2 UVRA, Metabolic Activation: NONE, Method: PREINCUBATION): inactive; negative
CC(=O)Nc1ccc(C)cc1	inactive; negative	inactive; negative	inactive; negative		inactive; negative		inactive; negative	inactive; negative	inactive; negative				inactive; negative			mutagenic call (Test System: AMES SALMONELLA TYPHIMURIUM, Strain/Indicator: TA98, Metabolic Activation: HAMSTER, LIVER, S-9, AROCLOR 1254 (10 OR 30%), Method: PREINCUBATION): inactive; negative; mutagenic call (Test System: AMES SALMONELLA TYPHIMURIUM, Strain/Indicator: TA98, Metabolic Activation: RAT, LIVER, S-9, AROCLOR 1254 (10 OR 30%), Method: PREINCUBATION): inactive; negative; mutagenic call (Test System: AMES SALMONELLA TYPHIMURIUM, Strain/Indicator: TA100, Metabolic Activation: RAT, LIVER, S-9, AROCLOR 1254 (10 OR 30%), Method: PREINCUBATION): inactive; negative; mutagenic call (Test System: AMES SALMONELLA TYPHIMURIUM, Strain/Indicator: TA1535, Metabolic Activation: HAMSTER, LIVER, S-9, AROCLOR 1254 (10 OR 30%), Method: PREINCUBATION): inactive; negative; mutagenic call (Test System: AMES SALMONELLA TYPHIMURIUM, Strain/Indicator: TA1535, Metabolic Activation: RAT, LIVER, S-9, AROCLOR 1254 (10 OR 30%), Method: PREINCUBATION): inactive; negative
